Read-outs that look alike come from different tables or passages of the source. Square brackets hold non-standard residues; d marks the D form. Ends that are not written are not given here. Peptide text beside a SMILES is read from it.
Tests used:
neurolysin (Nln) = test: Nln (0.1 ng), homogeneous recombinant enzyme
THOP1 [1] = test: THOP1 (0.1 ng), homogeneous recombinant enzyme
[2] = crude tissue extract (liver, 30 µg); settings: WT mice, up to 20 min
[3] = crude tissue extract (kidney, 3 µg); settings: WT mice, up to 20 min
in vitro [4] = assay type: in vitro ADME, mouse; settings: other tissue homogenate; mouse liver crude extract 30 µg; peptide 50 µM; 20 min; 250 µL TBS (0.025 M Tris-HCl, 0.125 M NaCl); RP-HPLC C18, UV 214 nm; average of three independent determinations; read-out: % of peptide degraded, Liver Extract (30 µg)
Procedure: (§1) Peptide hydrolyses were analyzed by reverse phase liquid chromatography (HPLC) using a C18 µBond-pak column (4.6 × 250 mm; Millipore Corp.) with a linear gradient of 5–65% acetonitrile in 0.1% TFA for 20 min at a flow rate of 1 mL/min, and absorbance monitored at a wavelength of 214 nm, as previously described. Cleaved peptide bonds were identified by mass spectrometry sequencing after isolating the cleavage fragments manually after HPLC, as previously described (data not shown). Control enzyme assays were conducted using bradykinin ([…]; 50 µM) as a standard substrate.

in vitro [5] = assay type: in vitro ADME; settings: other tissue homogenate, mouse kidney crude extract 3 µg, peptide 50 µM, 250 µL TBS (0.025 M Tris-HCl, 0.125 M NaCl), RP-HPLC C18, UV 214 nm, average of three independent determinations, read-out: % of peptide degraded, Kidney Extract (3 µg)
Procedure: as §1
(IGF1) Rev: AGAGGTGTGAAGAC-
(GLUT4) Rev: CAGCTCCTATGGTGGCG-
Glyceraldehyde 3-phosphate de- TGCCAGCCTCGTCC 75 BC_085275 hydrogenase (GAPDH) Rev: CAGGCGCCCAATAC-
Figure S1. Typical experiments to evaluate the enzymatic stability of Ric4 and derivatives on kidney tissue extracts. In order to determine if the peptides investigated herein were substrates of tissue peptidases, 50 μM of each peptide was individually incubated for 20 min in the presence of increas-ing crude kidney tissue extracts (0 µg, 3 µg or 30 µg, as indicated), in a final volume of 250 μl of 0,025 M Tris-HCl, containing 0.125 M NaCl (TBS). Peptide hydrolyses were analyzed by reverse phase liquid chromatography (HPLC) using a C18 µBond-pak column (4.6 x 250 mm; Millipore Corp.) with a linear gradient of 5-65% acetonitrile in 0.1 % TFA for 20 min at a flow rate of 1 mL/min, (1 picture or pasted object on this page, not shown here)

THOP1 [6] = biological target: THOP1 (Rattus norvegicus, UniProt P24155); assay type: in vitro ADME
Procedure: as §1

Nln = assay type: in vitro ADME
Procedure: as §1

[7] = tested on: differentiated C2C12 cells; test: Glucose uptake in C2C12 myotubes; assay type: cell-based, mouse; settings: peptides 100 µM, insulin 100 nM; 30 min, 37 °C; 3H-glucose (1 µCi/mL) or 2-NBDG (80 µM)
C57BL/6N (WT) mice = assay type: in vivo, mouse
Procedure: In vivo experiments were conducted with male C57BL/6N (WT) mice 12–16 weeks-old (University of São Paulo Medical School Animal Facility, SP, Brazil). Mice were maintained in individual ventilated cages (Amresco, SP, Brazil), under standardized conditions with an artificial 12 h dark–light cycle, with free access to standard chow (Nuvital Nutrientes S.A., Colombo, PR, Brazil) and drinking water ad libitum. The number of animals used was the minimum necessary to obtain statistically significant results and they were maintained and used in accordance with the guidelines of the National Council for Control of Animal Experiments (CONCEA), following international norms of animal care and maintenance. Thus, we hereby state that all experimental protocols were previously approved by University of São Paulo Ethic committee councils from Biomedical Science Institute (approval number for mice experimentation ICB/USP 22/2017).
WT mice were fasted for 12 h and blood samples were taken before and at 15, 30, 60, 90, and 120 min after the intraperitoneal (ip) injection of 2 g/kg glucose. Glycemia was measured using a glucometer (Accu-Check Performa, ROCHE, São Paulo, Brazil). Peptides were evaluated to affect glucose uptake either after ip or oral (by gavage) administration. After 20 min glucose was administrated (blood glucose levels reached 400 mg/dL), animals received ip or oral administration of either saline, insulin (0.75 IU/kg), or peptide (Ric2 or Ric4; 600 µg/kg). In addition, a group of animals received oral administration of either water or Ric2 or Ric4 (600 µg/kg). Glycemia was measured as indicated following vehicle, insulin, or peptide administration.

Chain of THOP1 (Rattus norvegicus, UniProt P24155) (P24155 whole entry): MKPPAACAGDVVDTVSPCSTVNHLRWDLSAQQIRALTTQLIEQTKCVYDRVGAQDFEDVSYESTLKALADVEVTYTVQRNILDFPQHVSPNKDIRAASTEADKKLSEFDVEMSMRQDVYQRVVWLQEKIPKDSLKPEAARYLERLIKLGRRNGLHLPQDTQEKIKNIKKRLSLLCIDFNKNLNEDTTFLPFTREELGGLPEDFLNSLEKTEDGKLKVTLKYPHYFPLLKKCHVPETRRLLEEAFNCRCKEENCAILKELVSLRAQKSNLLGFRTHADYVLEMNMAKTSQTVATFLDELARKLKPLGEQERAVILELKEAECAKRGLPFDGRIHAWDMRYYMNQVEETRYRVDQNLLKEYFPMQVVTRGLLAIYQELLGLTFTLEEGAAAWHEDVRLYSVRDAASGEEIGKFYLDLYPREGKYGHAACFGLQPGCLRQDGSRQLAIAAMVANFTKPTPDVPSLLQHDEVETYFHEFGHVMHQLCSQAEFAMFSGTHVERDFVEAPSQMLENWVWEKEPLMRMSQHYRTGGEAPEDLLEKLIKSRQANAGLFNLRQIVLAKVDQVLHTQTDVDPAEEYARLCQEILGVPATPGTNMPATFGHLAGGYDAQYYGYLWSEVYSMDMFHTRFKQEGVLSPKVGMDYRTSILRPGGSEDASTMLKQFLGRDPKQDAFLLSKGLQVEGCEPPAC

## Ac-LASVSTVLTSKYR-NH2
Neurolysin (Nln)
  not cleaved: 1.18 % of peptide degraded
THOP1 [1]
  not cleaved: 4.55 % of peptide degraded

## LASVSTVLTSKYR
Neurolysin (Nln)
  not cleaved: 4.69 % of peptide degraded
[2]
  cleaved bond: Leu8-Thr9, first_seen
THOP1 [1]
  not cleaved: 2.22 % of peptide degraded
[3]
  cleaved bond: Leu8-Thr9, first_seen

## Ac-LASVSTVLTSKYR-NH2 [RIC4-2]
In vitro [4]
  metabolised at 20 min: 70.2%
In vitro [5]
  metabolised at 20 min: 60%

## RPPGFSPFR [Bradykinin]
THOP1 [6]
  % of peptide degraded, THOP1: 11.93%
Nln
  % of peptide degraded, Nln: 14.51%

## Ac-LASVSTV[dL]TSKYR-NH2 [Ric4-16, Ric4 derived peptide]
[7]
  glucose uptake in differentiated C2C12 cells: efficiently induced glucose uptake
C57BL/6N (WT) mice; mouse, in vivo, po
  oral bioavailability: no oral bioavailability

## LASVSTVLTSKYR [RIC4]
In vitro [4]
  metabolised at 20 min: 62.4%
In vitro [5]
  metabolised at 20 min: 22.6%

## Ac-LASVSTVLTSKYR-NH2 [Ric4-2, Ric4 derived peptide]
C57BL/6N (WT) mice; WT mice fasted 12 h, glucose 2 g/kg ip at time zero, peptide 600 µg/kg orally by gavage
  blood glucose levels in GTT, oral administration: ability to reduce blood glucose levels

## CC(=O)N[C@@H](CC(C)C)C(=O)N[C@@H](C)C(=O)N[C@@H](CO)C(=O)N[C@H](C(=O)N[C@@H](CO)C(=O)N[C@H](C(=O)N[C@H](C(=O)N[C@H](CC(C)C)C(=O)N[C@H](C(=O)N[C@@H](CO)C(=O)N[C@@H](CCCCN)C(=O)N[C@@H](Cc1ccc(O)cc1)C(=O)N[C@@H](CCCNC(=N)N)C(N)=O)[C@@H](C)O)C(C)C)[C@@H](C)O)C(C)C [RIC4-16] (Ac-LASVSTV[dL]TSKYR-NH2)
In vitro [4]
  metabolised at 20 min: 26%
In vitro [5]
  metabolised at 20 min: 12.5%

— paper PMC8708875 (Pharmaceutics, 2021)
